# Test results as given in publication PMC8508374, “In Silico Identification and Evaluation of Natural Products as Potential Tumor Necrosis Factor Function Inhibitors Using Advanced Enalos Asclepios KNIME Nodes” (International Journal of Molecular Sciences, 2021).
# Target: T1, TNF (TNF-TNFR1 binding) (Homo sapiens, UniProt P01375)
# T1 construct: soluble TNF and its receptor TNFR1 in sandwich ELISA; human TNF-alpha (Peprotech) is printed for the cell assays; with Tumor necrosis factor receptor superfamily member 1A
# T1 sequence (P01375 77-233): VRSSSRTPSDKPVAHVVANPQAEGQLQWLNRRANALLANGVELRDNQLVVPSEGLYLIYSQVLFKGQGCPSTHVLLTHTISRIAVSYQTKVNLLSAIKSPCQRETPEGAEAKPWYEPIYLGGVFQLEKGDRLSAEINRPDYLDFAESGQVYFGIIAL
# T1 sequence (P19438 30-455 partner): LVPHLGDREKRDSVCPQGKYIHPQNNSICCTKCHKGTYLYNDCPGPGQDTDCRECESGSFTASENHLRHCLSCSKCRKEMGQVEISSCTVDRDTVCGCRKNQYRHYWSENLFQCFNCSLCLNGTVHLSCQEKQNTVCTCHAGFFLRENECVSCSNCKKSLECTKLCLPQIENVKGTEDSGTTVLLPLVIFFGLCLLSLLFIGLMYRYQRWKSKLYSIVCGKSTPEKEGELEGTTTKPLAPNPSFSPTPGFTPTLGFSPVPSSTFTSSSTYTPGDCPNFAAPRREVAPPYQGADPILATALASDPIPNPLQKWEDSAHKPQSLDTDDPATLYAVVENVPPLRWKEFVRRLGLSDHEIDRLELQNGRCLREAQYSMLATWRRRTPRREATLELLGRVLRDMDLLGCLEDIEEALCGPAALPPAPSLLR
# Test: TNF-TNFR1 sandwich ELISA, inhibition of binding
# Details: inhibition of TNF-TNFR1 interaction
compound,measurement,value
Oc1ccc([C@@H]2c3c(O)cc4c(c3C3C2c2c(c(O)cc5c2[C@H](c2cc(O)cc(O)c2)[C@@H](c2ccc(O)cc2)O5)[C@H]3c2ccccc2)[C@H](c2cc(O)cc(O)c2)[C@@H](c2ccc(O)cc2)C4)cc1 (stereo partly shown) [Nepalensinol B],IC50,90.2 ± 19 µM
